Columns and labels:
Format in all cases: in vivo
Puccinia recondita [1] = assay: Example 8: efficacy against Puccinia recondita on wheat plants, formulated compounds; conditions: 240 h, alone, grading 10 days after contamination
Method: (§1) The formulated compounds are diluted with water to obtain the desired active material concentration Wheat plants (Scipion variety) in starter cups, sown on 50/50 peat soil-pozzolana substrate and grown at 12° C., are treated at the 1-leaf stage (10 cm tall) by spraying with the aqueous suspension described above.
(§2) Plants, used as controls, are treated with an aqueous solution not containing the active material.
(§3) After 24 hours, the plants are contaminated by spraying the leaves with an aqueous suspension of Puccinia recondita spores (100,000 spores per ml). The spores are collected from a 10-day-old contaminated wheat and are suspended in water containing 2.5 ml/l of tween 80 10%. The contaminated wheat plants are incubated for 24 hours at 20° C. and at 100% relative humidity, and then for 10 days at 20° C. and at 70% relative humidity. Grading is carried out 10 days after the contamination, in comparison with the control plants.

Botrytis cinerea [2] = assay: Example 16: efficacy against Botrytis cinerea on gherkin plants, formulated compounds; conditions: alone, grading 5 to 7 days after contamination
Method: (§4) The formulated compounds are diluted with water to obtain the desired active material concentration.
(§5) Gherkin plants (Petit vert de Paris variety) in starter cups, sown on a 50/50 peat soil-pozzolana substrate and grown at 18-20° C., are treated at the cotyledon Z11 stage by spraying with the aqueous suspension described above. Plants, used as controls, are treated with an aqueous solution not containing the active material.
(§6) After 24 hours, the plants are contaminated by depositing drops of an aqueous suspension of Botrytis cinerea spores (150,000 spores per ml) on upper surface of the leaves. The spores are collected from a 15-day-old culture and are suspended in a nutrient solution composed of: • 20 g/L of gelatine • 50 g/L of cane sugar • 2 g/L of NH4NO3 • 1 g/L of KH2PO4
(§7) The contaminated gherkin plants are settled for 5/7 days in a climatic room at 15-11° C. (day/night) and at 80% relative humidity. Grading (% of efficacy) is carried out 5 to 7 days after the contamination, in comparison with the control plants.

Botrytis cinerea [3] = assay: Example 9: efficacy against Botrytis cinerea on gherkin plants, formulated compounds; conditions: alone, grading 5 to 7 days after contamination
Method: as §4, §5, §6, §7

[4] = test system: Erysiphe graminis f sp. tritici; assay: Example 4: efficacy against Erysiphe graminis on wheat plants, formulated compounds; conditions: Blumeria graminis, alone, grading 7 to 14 days after contamination
Method: as §1, with “formulated (concentrated suspension)” for “formulated”, “(Audace” for “(Scipion”
as §2
(§8) After 24 hours, the plants are contaminated by dusting them with Erysiphe graminis f sp. tritici spores, the dusting being carried out using diseased plants.
(§9) Grading is carried out 7 to 14 days after the contamination, in comparison with the control plants.

[5] = test system: Erysiphe graminis f sp. tritici; assay: Example 7: efficacy against Erysiphe graminis on wheat plants, formulated compounds; conditions: Blumeria graminis, alone, grading 7 to 14 days after contamination
Method: as §1, with “concentration.” for “concentration”, “(Audace” for “(Scipion”
as §2
After 24 hours, the plants are contaminated by dusting them with Erysiphe graminis f sp. tritici spores, the dusting being carried out using diseased plants. Grading is carried out 7 to 14 days after the contamination, in comparison with the control plants.

[6] = test system: Mycosphaerella graminicola; assay: Example 1: efficacy against Mycosphaerella graminicola on wheat plants, spray 24 h before contamination; conditions: Zymoseptoria tritici, alone, grading 21 to 28 days after contamination
Method: (§10) The active ingredients tested are prepared by potter homogenisation in a mixture of acetone/tween/water. This suspension is then diluted with water to obtain the desired active material concentration.
(§11) Wheat plants (Scipion variety), sown on a 50/50 peat soil-pozzolana substrate in starter cups and grown at 12° C., are treated at the 1-leaf stage (10 cm tall) by spraying with the aqueous suspension described above. Plants, used as controls, are treated with an aqueous solution not containing the active material.
(§12) After 24 hours, the plants are contaminated by spraying them with an aqueous suspension of Mycosphaerella graminicola spores (500 000 spores per ml). The spores are collected from a 7-day-old culture. The contaminated wheat plants are incubated for 72 hours at 18° C. and at 100% relative humidity, and then for 21 to 28 days at 90% relative humidity.
(§13) Grading (% of efficacy) is carried out 21 to 28 days after the contamination, in comparison with the control plants.

Botrytis cinerea [7] = assay: Example 5: efficacy against Botrytis cinerea on gherkin plants; conditions: alone, grading 5 to 7 days after contamination
Method: as §10, §5, §6, §7

[8] = test system: Erysiphe graminis f sp. tritici; assay: Example 17: efficacy against Erysiphe graminis on wheat plants, formulated compounds; conditions: Blumeria graminis, alone, grading 7 to 14 days after contamination
Method: as §1, with “compounds (Compound 1 and a mix of spiroxamine (300 g/l) and prothioconazole (160 g/l)” for “compounds”, “(Audace” for “(Scipion”
as §2, §8, §9

Sphaerotheca fuliginea = assay: Example 11: efficacy against Sphaerotheca fuliginea on gherkin plants, formulated compounds; conditions: Podosphaera fuliginea, 504 h, alone, grading 21 days after contamination
Method: (§14) The formulated compounds are diluted with water to obtain the desired active material concentration
as §5, with “(Vert petit” for “(Petit vert”, “20° C./23°” for “18-20°”, “2-leaves” for “cotyledon Z11”
After 24 hours, the plants are contaminated by spraying them with an aqueous suspension of Sphaerotheca fuliginea spores (100 000 spores per ml). The spores are collected from a contaminated plants. The contaminated gerkhin plants are incubated at about 20° C./25° C. and at 60/70% relative humidity.
Grading (% of efficacy) is carried out 21 days after the contamination, in comparison with the control plants.

[9] = test system: Erysiphe graminis f sp. tritici; assay: Example 14: efficacy against Erysiphe graminis on wheat plants, formulated compounds; conditions: Blumeria graminis, alone, grading 7 to 14 days after contamination
Method: as §1, with “(Audace” for “(Scipion”
as §2, §8, §9

Botrytis cinerea [10] = assay: Example 6: efficacy against Botrytis cinerea on gherkin plants; conditions: alone, grading 5 to 7 days after contamination
Method: as §10, §5, §6, §7

Botrytis cinerea [11] = assay: Example 13: efficacy against Botrytis cinerea on gherkin plants, formulated compounds; conditions: alone, grading 5 to 7 days after contamination
Method: as §4, §5, §6, §7

Puccinia recondita [12] = assay: Example 10: efficacy against Puccinia recondita on wheat plants; conditions: 240 h, alone, grading 10 days after contamination
Method: as §10
Wheat plants (Scipion variety) in starter cups, sown on 50/50 peat soil-pozzolana substrate and grown at 12° C., are treated at the 1-leaf stage (10 cm tall) by spraying with the aqueous suspension described above.
as §2, §3

Botrytis cinerea [13] = assay: Example 3: efficacy against Botrytis cinerea on gherkin plants, spray 24 h before contamination; conditions: alone, grading 5 to 7 days after contamination
Method: as §10, §5, §6, §7

[14] = test system: Mycosphaerella graminicola; assay: Example 12: efficacy against Mycosphaerella graminicola on wheat plants, formulated compounds; conditions: Zymoseptoria tritici
Method: as §14, §11, §12, §13

[15] = test system: Erysiphe graminis f sp. tritici; assay: Example 2: efficacy against Erysiphe graminis on wheat plants, spray 24 h before contamination; conditions: Blumeria graminis, alone, grading 7 to 14 days after contamination
Method: as §10
Wheat plants (Audace variety) in starter cups, sown on 50/50 peat soil-pozzolana substrate and grown at 12° C., are treated at the 1-leaf stage (10 cm tall) by spraying with the aqueous suspension described above.
as §2, §8, §9

Botrytis cinerea [16] = assay: Example 15: efficacy against Botrytis cinerea on gherkin plants, formulated compounds; conditions: read-out: % Efficacy
Method: as §4, §5, §6, §7

Fc1ccc([C@]2(Cn3cncn3)O[C@H]2c2ccccc2Cl)cc1 (racemic) [Epoxiconazole, reference compound]
Emax at 15.6 g/ha (Puccinia recondita [1]; dose 15.6 g/ha): 25%

CC(C)(C)C(O)C(Oc1ccc(-c2ccccc2)cc1)n1cncn1 (stereo not drawn) [Bitertanol, reference compound]
Emax at 333 ppm (Botrytis cinerea [2]; dose 333 ppm): 0%

O=C(NCCc1ncc(C(F)(F)F)cc1Cl)c1ccccc1C(F)(F)F [Compound 1, N-{2-[3-chloro-5-(trifluoromethyl)-2-pyridinyl]ethyl}-2-trifluoromethylbenzamide]
Emax at 12.3 ppm (Botrytis cinerea [3]; dose 12.3 ppm): 0%
Emax at 37 ppm (Botrytis cinerea [3]; dose 37 ppm): 50%
Emax at 62.5 g/ha ([4]; dose 62.5 g/ha): 10%
Emax at 250 g/ha ([5]; dose 250 g/ha): 40%
Emax at 15 g/ha [6]: 25%
Emax at 31 g/ha [6]: 65%
Emax at 37 ppm (Botrytis cinerea [7]; dose 37 ppm): 0%
Emax at 111 ppm (Botrytis cinerea [7]): 80%
Emax at 125 g/ha [8]: 0%
Emax at 4.1 ppm (Sphaerotheca fuliginea; dose 4.1 ppm): 28%
Emax at 500 g/ha ([9]; dose 500 g/ha): 44%
Emax at 4 ppm (Botrytis cinerea [10]; dose 4 ppm): 10%
Emax at 62.5 g/ha (Puccinia recondita [1]; dose 62.5 g/ha): 0%
Emax at 250 g/ha (Puccinia recondita [1]; dose 250 g/ha): 0%
Emax at 31.2 g/ha (Botrytis cinerea [11]; dose 31.2 g/ha): 20%
Emax at 62.5 g/ha (Botrytis cinerea [11]): 30%
Emax at 250 g/ha (Puccinia recondita [12]): 0%
Emax at 12 ppm (Botrytis cinerea [13]; dose 12 ppm): 0%
Emax at 37 ppm (Botrytis cinerea [13]): 30%
Emax at 111 ppm (Botrytis cinerea [13]): 80%
Emax at 12.3 ppm (Botrytis cinerea [2]; dose 12.3 ppm): 5%
Emax at 62.5 g/ha ([14]; dose 62.5 g/ha, alone, wheat, grading 21 to 28 days after contamination): 77%
Emax at 62.5 g/ha ([15]; dose 62.5 g/ha): 0%
Emax at 125 g/ha [15]: 20%
Emax at 37 ppm (Botrytis cinerea [16]; dose 37 ppm, alone, gherkin, grading 5 to 7 days after contamination): 50%

CC(C1CC1)C(O)(Cn1cncn1)c1ccc(Cl)cc1 (stereo not drawn) [Cyproconazole, reference compound]
Emax at 31.2 g/ha ([4]; dose 31.2 g/ha): 15%

CC1COC(Cn2cncn2)(c2ccc(Oc3ccc(Cl)cc3)cc2Cl)O1 (stereo not drawn) [Difenconazole, reference compound]
Emax at 111 ppm (Botrytis cinerea [7]): 15%
Emax at 333 ppm (Botrytis cinerea [7]; dose 333 ppm): 25%

CC1(C(=O)Nc2ccc(O)c(Cl)c2Cl)CCCCC1 [Fenhexamid, reference compound]
Emax at 37 ppm (Sphaerotheca fuliginea; dose 37 ppm): 35%

CC(Cc1ccc(C(C)(C)C)cc1)CN1C[C@@H](C)O[C@@H](C)C1 (stereo partly drawn) [Fenpropimorph, reference compound]
Emax at 62.5 g/ha (Botrytis cinerea [11]): 10%
Emax at 125 g/ha (Botrytis cinerea [11]; dose 125 g/ha): 30%

CCCCC(O)(Cn1cncn1)c1ccc(Cl)cc1Cl (stereo not drawn) [Hexaconazole, reference compound]
Emax at 111 ppm (Botrytis cinerea [10]; dose 111 ppm): 15%

CC1(C)CCC(Cc2ccc(Cl)cc2)C1(O)Cn1cncn1 (stereo not drawn) [Metconazole, reference compound]
Emax at 31.2 g/ha ([5]; dose 31.2 g/ha): 50%

CCCCC(C#N)(Cn1cncn1)c1ccc(Cl)cc1 (stereo not drawn) [Myclobutanil, reference compound]
Emax at 333 ppm (Botrytis cinerea [3]; dose 333 ppm): 0%

CCCN(CCOc1c(Cl)cc(Cl)cc1Cl)C(=O)n1ccnc1 [Prochloraz, reference compound]
Emax at 250 g/ha ([14]; read-out: % Efficacy): 54%

CCCC1COC(Cn2cncn2)(c2ccc(Cl)cc2Cl)O1 (stereo not drawn) [Propiconazole, reference compound]
Emax at 37 ppm (Botrytis cinerea [13]): 30%
Emax at 111 ppm (Botrytis cinerea [13]): 50%
Emax at 333 ppm (Botrytis cinerea [13]; dose 333 ppm): 70%

OC(Cc1ccccc1Cl)(Cn1nc[nH]c1=S)C1(Cl)CC1 (stereo not drawn) [Prothioconazole, reference compound]
Emax at 125 g/ha [15]: 0%
Emax at 250 g/ha ([15]; dose 250 g/ha): 60%

CCCN(CC)CC1COC2(CCC(C(C)(C)C)CC2)O1 (stereo not drawn) [Spiroxamine, reference compound]
Emax at 125 g/ha ([9]; dose 125 g/ha): 0%

CC(C)(C)C(O)(CCc1ccc(Cl)cc1)Cn1cncn1 (stereo not drawn) [Tebuconazole, reference compound]
Emax at 15 g/ha [6]: 15%
Emax at 31 g/ha [6]: 15%

CC(C)(C)C(O)C(Oc1ccc(Cl)cc1)n1cncn1 (stereo not drawn) [Triadimenol, reference compound]
Emax at 250 g/ha (Puccinia recondita [12]): 50%

O=CNC(N1CCN(C(NC=O)C(Cl)(Cl)Cl)CC1)C(Cl)(Cl)Cl (stereo not drawn) [Triforine]
Emax at 37 ppm (Botrytis cinerea [16]): 0%
Emax at 111 ppm (Botrytis cinerea [16]): 15%
